Assay results taken from patent US9758502B2, “Dihydropyrone compounds and herbicides comprising the same” (SUMITOMO CHEMICAL COMPANY, LIMITED, priority 2012, dated 2017).

Test system: Echinochloa crus-galli
Test: Test 1-1 Post-emergence Treatment Test
Type: in vivo
Details: sprayed on whole plants at 1-2 leaf stages, treatment amount 1,000 g/10,000 m^2, after 20 days of the treatment, greenhouse
Procedure: Here an efficacy for controlling weeds on the present compound was visually observed and evaluated in 11 criteria of 0 to 10 (0 represents no action, 10 represents complete death and the intermediate efficacy were evaluated in 1 to 9 criteria).
Commercial soil for propagation was put in a pot measuring 8 cm in diameter and 6.5 cm in height, and in the pot, seeds of Echinochloa crus-galli were sown, and then covered with soil of about 0.5 cm thickness and the plants were grown in a greenhouse. When the plants were grown to 1-2 leaf stages, a predetermined amount of a chemical diluted solution containing a compound (1-1) was uniformly spayed on the whole plants. Here the chemical diluted solution was prepared by dissolving a predetermined amount of the compound (1-1) in dimethylformamide solution containing 2% of Tween 20 (polyoxyetylene sorbitan fatty acid ester) (manufactured by MP Biomedicals Inc.) and then diluting the solution with deionized water. After spraying, plants were grown in a greenhouse and after 20 days of the treatment, the efficacy for Echinochloa crus-galli was observed and the controlling effect was evaluated.
Similarly, the present compounds (1-2) to (1-11) and (1-13) were also tested.

CCc1cc(C)cc(CC)c1C1=C(O)CC(C(C)CS(=O)(=O)c2ccc(C(F)(F)F)cn2)OC1=O (stereo not shown) [(1-13)]
efficacy for controlling weeds (visually observed, 11 criteria of 0 to 10): ≥ 9
